{
  "source": "patent US20040203067A1",
  "about": "“Methods for cancer prognosis and screening antiproliferative agents” (Temple University - Of The Commonwealth System of Higher …, priority 1998, published 2004)",
  "key": {"BT20 cells": {"tested_on": "BT20 cells", "experiment": "Killing of BT20 cells determined by Trypan blue exclusion", "assay_type": "cell-based, human", "settings": "2.5 μM in DMSO, within 72 hours of treatment"}, "phospho-STAT-3": {"tested_on": "phospho-STAT-3", "experiment": "Phospho-STAT-3 immunoassay (Western blot) in BT20 breast cancer cells", "assay_type": "cell-based, human", "settings": "25 μM", "protocol": "Human breast carcinoma cell lines, BT20, 126, T47D, MCF-7, ZR75, BT474, 415, and 435 were maintained in Dulbecco's modified eagle medium (DMEM), supplemented with 10% fetal bovine serum (FBS) (complete medium) in a 37° C. incubator with 5% CO2. STAT-3 (C-20) antibody, which recognizes phosphorylated and non-phosphorylated STAT-3, was purchased from Santa Cruz Biotechnologies and utilized as a positive control. Phospho-STAT-3 antibody was purchased from New England Biolabs. Rabbit anti-mouse antibody (secondary antibody for anti-STAT-3 and antiphospho-STAT-3) were purchased from Amersham International.\nBT-20 cells were seeded at a density of 2×10^6 cells per 100 mm diameter dish and allowed to grow for 24 hours. Fresh medium was added to each plate 2 hours before treatment with the compound. The compound was dissolved in DMSO to make 5 mM stock solution and added to the medium (10 ml) to obtain a final concentration of 25 μM. DMSO alone was added to the control cells to study the effect of vehicle. […]\nEqual amounts total protein ([…]) were run in each lane of SDS-PAGE gel (10%) and transferred to IMMOBILON-P (Millipore, USA). […] The antibody was detected using the ECL Western blotting analysis kit (Amersham International) following the manufacturer's instructions."}},
  "data": [
    {"compound": "O=S(=O)(/C=C/c1ccc(F)cc1)Cc1ccc(Cl)cc1", "note": "[FRI-20, E-4-fluorostyryl 4-chlorobenzyl sulfone]", "values": [
      {"measurement": "BT20 cells killed", "setting": "BT20 cells", "value": "more than 95%"},
      {"measurement": "phospho-STAT-3 staining after treatment", "setting": "phospho-STAT-3; 48 hours at 37° C., phospho-STAT-3 antibody Western blot (FIG. 9)", "value": "complete loss of phospho-STAT-3"},
      {"measurement": "STAT-3 staining (STAT-3 expression) after treatment", "setting": "phospho-STAT-3; 48 hours, STAT-3 antibody Western blot (FIG. 9)", "value": "stained positive for STAT-3"}
    ]}
  ]
}
